Results taken from the NIST ThermoML archive (doi:10.1021/acs.jced.7b00221).

Assay: xn = mol fraction of the nth substance listed
Details: 100 kPa, Liquid, Cone and plate viscometry

CC(=O)[O-].CCCCCCCCCCCCCC[P+](CCCCCC)(CCCCCC)CCCCCC [trihexyl(tetradecyl)phosphonium acetate] + CCCCCC[n+]1ccn(C)c1.O=S(=O)([N-]S(=O)(=O)C(F)(F)F)C(F)(F)F
viscosity [mPa·s]
Details	278.15 K	283.15 K	288.15 K	293.15 K	298.15 K	303.15 K	308.15 K	313.15 K	318.15 K	323.15 K
x1 = 0.101	353	251	182	136	105	82	66	53	–	–
x1 = 0.199	579	404	286	209	156	120	94	75	61	–
x1 = 0.3	946	644	447	319	235	177	136	107	85	70
x1 = 0.4	1403	939	640	449	324	239	181	140	110	88
x1 = 0.499	2057	1345	901	621	440	320	238	181	141	112
x1 = 0.6	2588	1669	1100	746	523	376	277	207	159	124
x1 = 0.699	2721	1763	1160	785	530	381	279	208	159	125
x1 = 0.799	2877	1850	1219	827	578	414	304	228	175	137
x1 = 0.899	2415	1575	1047	717	505	366	271	204	158	123
